Source: patent US8952024B2, “Herbicidal pyrimidone derivatives” (E I du Pont de Nemours and Company, priority 2009, dated 2015)

Assays:
Assay in all cases: Test D pre-/postemergence plant response
Assay type in all cases: in vivo
[1] = test system: mallow (common mallow, Malva sylvestris); conditions: Postemergence
In short: (§1)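 Ratings come from greenhouse-grown weeds in loam and sand treated pre- or postemergence (postemergence height 2 to 18 cm). Evaluation after 14–21 days, visual, relative to controls, on a 0–100 control scale.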

[2] = test system: field bindweed (Convolvulus arvensis)
In short: as §1

[3] = test system: ragweed (common ragweed, Ambrosia elatior)
In short: as §1

[4] = test system: green foxtail (Setaria viridis)
In short: as §1

[5] = test system: naked crabgrass (Digitaria nuda)
In short: as §1

[6] = test system: johnsongrass (Sorghum halepense)
In short: as §1

[7] = test system: Italian ryegrass (Lolium multiflorum)
In short: as §1

[8] = test system: dayflower (Virginia (VA) dayflower, Commelina virginica)
In short: as §1

[9] = test system: quackgrass (Elytrigia repens)
In short: as §1

[10] = test system: goosegrass (Eleusine indica)
In short: as §1

[11] = test system: groundsel (common groundsel, Senecio vulgaris); conditions: Postemergence
In short: as §1

[12] = test system: prickly sida (Sida spinosa)
In short: as §1

[13] = test system: sandbur (southern sandbur, Cenchrus echinatus)
In short: as §1

[14] = test system: bermudagrass (Cynodon dactylon)
In short: as §1

[15] = test system: bluegrass (annual bluegrass, Poa annua)
In short: as §1

[16] = 125 g ai/ha, scale 0 to 100 (0 no effect, 100 complete control)
[17] = 62 g ai/ha, scale 0 to 100 (0 no effect, 100 complete control)
[18] = Postemergence, 16 g ai/ha, scale 0 to 100
[19] = Postemergence, 31 g ai/ha, scale 0 to 100
[20] = Postemergence, 125 g ai/ha, scale 0 to 100 (0 no effect, 100 complete control)
[21] = Postemergence, 62 g ai/ha, scale 0 to 100 (0 no effect, 100 complete control)
[22] = Preemergence, 16 g ai/ha, scale 0 to 100, 0 no effect, 100 complete control
[23] = Preemergence, 62 g ai/ha, scale 0 to 100
[24] = Preemergence, 125 g ai/ha, scale 0 to 100
[25] = Preemergence, 31 g ai/ha, scale 0 to 100 (0 no effect, 100 complete control)
[26] = Postemergence, 31 g ai/ha, scale 0 to 100 (0 no effect, 100 complete control)

Cc1ccc(Cl)cc1-n1c(-c2ccccc2)ncc(C(=O)C2=C(O)CCCC2=O)c1=O [Compound 52]
Plant response rating, Mallow ([1]; 16 g ai/ha, scale 0 to 100): 50 | Plant response rating, Mallow ([1]; 31 g ai/ha, scale 0 to 100): 65 | Plant response rating, Mallow [1, 16]: 75 | Plant response rating, Mallow [1, 17]: 65 | Plant response rating, Field Bindweed [2, 18]: 50 | Plant response rating, Field Bindweed [2, 19]: 70 | Plant response rating, Field Bindweed [2, 20]: 70 | Plant response rating, Field Bindweed [2, 21]: 70 | Plant response rating, Field Bindweed [2, 22]: 20 | Plant response rating, Field Bindweed [2, 23]: 20 | Plant response rating, Field Bindweed [2, 24]: 50 | Plant response rating, Ragweed [3, 18]: 90 | Plant response rating, Ragweed [3, 19]: 95 | Plant response rating, Ragweed [3, 20]: 95 | Plant response rating, Ragweed [3, 21]: 95 | Plant response rating, Ragweed [3, 22]: 30 | Plant response rating, Ragweed [3, 25]: 50 | Plant response rating, Ragweed [3, 24]: 98 | Plant response rating, Foxtail, Green [4, 18]: 70 | Plant response rating, Foxtail, Green [4, 19]: 70 | Plant response rating, Foxtail, Green [4, 20]: 95 | Plant response rating, Foxtail, Green [4, 21]: 85 | Plant response rating, Foxtail, Green [4, 22]: 0 | Plant response rating, Foxtail, Green [4, 25]: 0 | Plant response rating, Foxtail, Green [4, 23]: 0 | Plant response rating, Foxtail, Green [4, 24]: 15 | Plant response rating, Crabgrass, Naked [5, 18]: 70 | Plant response rating, Crabgrass, Naked [5, 19]: 75 | Plant response rating, Crabgrass, Naked [5, 20]: 95 | Plant response rating, Crabgrass, Naked [5, 21]: 95 | Plant response rating, Crabgrass, Naked [5, 22]: 0 | Plant response rating, Crabgrass, Naked [5, 25]: 0 | Plant response rating, Crabgrass, Naked [5, 23]: 20 | Plant response rating, Crabgrass, Naked [5, 24]: 80 | Plant response rating, Johnsongrass [6, 18]: 65 | Plant response rating, Johnsongrass [6, 19]: 75 | Plant response rating, Johnsongrass [6, 21]: 85 | Plant response rating, Johnsongrass [6, 22]: 0 | Plant response rating, Johnsongrass [6, 25]: 0 | Plant response rating, Johnsongrass [6, 23]: 75 | Plant response rating, Johnsongrass [6, 24]: 95 | Plant response rating, Ryegrass, Italian [7, 18]: 0 | Plant response rating, Ryegrass, Italian [7, 19]: 0 | Plant response rating, Ryegrass, Italian [7, 20]: 35 | Plant response rating, Ryegrass, Italian [7, 21]: 15 | Plant response rating, Ryegrass, Italian [7, 22]: 0 | Plant response rating, Ryegrass, Italian [7, 25]: 0 | Plant response rating, Ryegrass, Italian [7, 24]: 15 | Plant response rating, Dayflower, VA [8, 18]: 5 | Plant response rating, Dayflower, VA [8, 19]: 5 | Plant response rating, Dayflower, VA [8, 20]: 60 | Plant response rating, Dayflower, VA [8, 21]: 30 | Plant response rating, Dayflower, VA [8, 22]: 0 | Plant response rating, Dayflower, VA [8, 25]: 0 | Plant response rating, Dayflower, VA [8, 23]: 0 | Plant response rating, Dayflower, VA [8, 24]: 40 | Plant response rating, Quackgrass [9, 18]: 5 | Plant response rating, Quackgrass [9, 19]: 10 | Plant response rating, Quackgrass [9, 20]: 20 | Plant response rating, Quackgrass [9, 21]: 15 | Plant response rating, Quackgrass [9, 22]: 0 | Plant response rating, Quackgrass [9, 25]: 0 | Plant response rating, Quackgrass [9, 24]: 20 | Plant response rating, Goosegrass [10, 18]: 65 | Plant response rating, Goosegrass [10, 19]: 75 | Plant response rating, Goosegrass [10, 20]: 80 | Plant response rating, Goosegrass [10, 21]: 75 | Plant response rating, Goosegrass [10, 22]: 5 | Plant response rating, Goosegrass [10, 25]: 60 | Plant response rating, Goosegrass [10, 23]: 80 | Plant response rating, Goosegrass [10, 24]: 98 | Plant response rating, Groundsel ([11]; 16 g ai/ha, scale 0 to 100): 100 | Plant response rating, Groundsel ([11]; 31 g ai/ha, scale 0 to 100): 100 | Plant response rating, Groundsel [11, 16]: 100 | Plant response rating, Groundsel [11, 17]: 100 | Plant response rating, Prickly Sida [12, 18]: 65 | Plant response rating, Prickly Sida [12, 19]: 65 | Plant response rating, Prickly Sida [12, 20]: 90 | Plant response rating, Prickly Sida [12, 21]: 80 | Plant response rating, Prickly Sida [12, 22]: 0 | Plant response rating, Prickly Sida [12, 25]: 0 | Plant response rating, Prickly Sida [12, 23]: 50 | Plant response rating, Prickly Sida [12, 24]: 100 | Plant response rating, Sandbur [13, 18]: 65 | Plant response rating, Sandbur [13, 19]: 65 | Plant response rating, Sandbur [13, 20]: 80 | Plant response rating, Sandbur [13, 21]: 75 | Plant response rating, Sandbur [13, 22]: 0 | Plant response rating, Sandbur [13, 25]: 0 | Plant response rating, Sandbur [13, 24]: 98 | Plant response rating, Bermudagrass [14, 18]: 75 | Plant response rating, Bermudagrass [14, 26]: 75 | Plant response rating, Bermudagrass [14, 20]: 80 | Plant response rating, Bermudagrass [14, 21]: 75 | Plant response rating, Bermudagrass [14, 22]: 30 | Plant response rating, Bermudagrass [14, 25]: 70 | Plant response rating, Bermudagrass [14, 23]: 90 | Plant response rating, Bermudagrass [14, 24]: 100 | Plant response rating, Bluegrass [15, 18]: 15 | Plant response rating, Bluegrass [15, 26]: 25 | Plant response rating, Bluegrass [15, 20]: 35 | Plant response rating, Bluegrass [15, 21]: 35 | Plant response rating, Bluegrass [15, 22]: 0 | Plant response rating, Bluegrass [15, 25]: 0 | Plant response rating, Bluegrass [15, 23]: 0 | Plant response rating, Bluegrass [15, 24]: 20
